This is an account of results in BindingDB's records for doi:10.1016/s0960-894x(00)00194-3 (The Oxford Centre For Molecular Sciences, 2000).

The structures appear in SMILES notation. Where a SMILES comes first, the peptide text is derived from it.

The nature of this experiment: Peptide was tested for inhibition constant for competitive inhibition using Suc-AAPA-pNa and Pancreatic elastase.
`CSCC[C@H](N)C(=O)N[C@@H](Cc1ccccc1)C(=O)N[C@@H](CC(C)C)C(=O)N[C@@H](C)C(=O)O` [(S)-2-{(S)-2-[(S)-2-((S)-2-Amino-4-methylsulfanyl-butyrylamino)-3-phenyl-propionylamino]-4-methyl-pentanoylamino}-propionic acid] (H-MFLA-OH) showed an inhibition constant (Ki) of 1100 µM.

In turn, `CC[C@H](C)[C@H](NC(=O)[C@H](C)NC(=O)[C@H](CCC(=O)O)NC(=O)[C@H](CC(C)C)NC(=O)[C@H](Cc1ccccc1)NC(=O)[C@@H](N)CCSC)C(=O)N1CCC[C@H]1C(=O)N[C@@H](CCSC)C(=O)N[C@@H](CO)C(=O)O` registered a Ki of 5800 µM.

`CC[C@H](C)[C@H](NC(=O)[C@H](CO)NC(=O)[C@H](CCSC)NC(=O)[C@@H]1CCCN1C(=O)[C@@H](NC(=O)[C@H](C)NC(=O)[C@H](CCC(=O)O)NC(=O)[C@H](CC(C)C)NC(=O)[C@H](Cc1ccccc1)NC(=O)[C@@H](N)CCSC)[C@@H](C)CC)C(=O)O` came in with an inhibition constant Ki of 100 µM.

Broadly, the Ki is a measure of affinity in units of concentration, obtained from inhibition or displacement. A higher Ki goes with weaker binding.
